Results on 7 compounds are retold here after ChEMBL document CHEMBL1201862, “PubChem BioAssay data set” (2004).

Test systems include HT-29; IGROV-1; RXF 393; COLO 205; MOLT-4; MDA-MB-231; HL-60; NCI/ADR-RES; SK-MEL-5; CCRF-CEM; SK-MEL-2; CAKI-1; HCT-15; M14; SW-620; Malme-3M; SF-268; MDA-N; KM12; SF-295.
Assay in all cases: growth of human tumour cells (NCI), 48 h

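Method: 48-hour compound exposure of cells in 96-well plates, five concentrations, linear interpolation of endpoints. GI50: concentration for 50% inhibition of growth.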 Calls of active or inactive are those of the source. Rule as the data show it: active = GI50 up to about 1.1 µM and inactive = higher. Square brackets hold non-standard residues; d marks the D form. Peptide text beside a SMILES is read from it. * marks the point of attachment. ξ: configuration not given here. Propanoyl(3-(4-MeO-Ph)) = COc1ccc(CCC(=O)*)cc1; Thr(3ξ) = CC(O)[C@H](N)C(=O)O; dNMeL = CN[C@H](CC(C)C)C(=O)O; ξLac = CC(O)C(=O)O Bounds are passed on as bounds.

Take `N#Cc1c(-c2ccc(Cl)cc2)cc(-c2ccc(Nc3ccnc4cc(C(F)(F)F)ccc34)cc2)[nH]c1=O`: the GI50 in the assay on HT-29 was 7.13 µM (inactive); with IGROV-1, > 54.3 µM (inactive); in the assay with RXF 393, 8.93 µM (inactive); with COLO 205, 21 µM (inactive); in the assay with MOLT-4, 4.05 µM (inactive); in the assay with MDA-MB-231 it was 19.3 µM (inactive). For the same compound, the GI50 was 10.8 µM (inactive) in the assay with HL-60; > 100 µM (inactive) in the assay on NCI/ADR-RES; 19.1 µM (inactive) in the assay with SK-MEL-5; 3.7 µM (inactive) with CCRF-CEM; 57.4 µM (inactive) in the assay with SK-MEL-2; > 43.4 µM (inactive) in the assay on CAKI-1. Moreover, the GI50 is greater than 100 µM with HCT-15; 4.31 µM (inactive) in the assay on M14; 14 µM (inactive) in the assay with SW-620; 14.1 µM (inactive) in the assay on Malme-3M; > 66.4 µM (inactive) in the assay with SF-268; 3.53 µM (inactive) with MDA-N. Besides, the GI50 was 67.1 µM (inactive) with KM12 and 36.1 µM (inactive) with SF-295.

Take `CCc1cc2c(c3c1CCCC3=O)CC1(Cc3ccc(C(=O)OC)cc3C1)C2` (stereo not given): the GI50 in the assay on HT-29 was 68.1 µM (inactive); in the assay with IGROV-1, > 100 µM (inactive); in the assay on RXF 393 it was 32.5 µM (inactive); in the assay with COLO 205 it was 47.9 µM (inactive); with MOLT-4, 24.9 µM (inactive); with MDA-MB-231, > 100 µM (inactive). Further, the GI50 in the assay with HL-60 was 22.5 µM (inactive); in the assay with NCI/ADR-RES, 76 µM (inactive); in the assay on SK-MEL-5 it was 15 µM (inactive); in the assay on CCRF-CEM it was 29.3 µM (inactive); in the assay with SK-MEL-2 it was > 100 µM (inactive); with CAKI-1, 96.6 µM (inactive). Further, the GI50 was greater than 100 µM in the assay with HCT-15; 94.8 µM (inactive) in the assay with M14; > 100 µM (inactive) with SW-620; 49.2 µM (inactive) in the assay with Malme-3M; > 100 µM (inactive) in the assay on SF-268; > 100 µM (inactive) in the assay on MDA-N. Moreover, the GI50 is 30.6 µM (inactive) with KM12 and 85.7 µM (inactive) in the assay with SF-295.

On to `CC(NC(=O)CNP(=O)(c1ccccc1)c1ccccc1)C(=O)NC(Cc1ccccc1)C(=O)OCc1ccccc1` (stereo not given), for which the GI50 in the assay on HT-29 was 92.9 µM (inactive); in the assay on IGROV-1, 66.5 µM (inactive); in the assay on RXF 393, 21 µM (inactive); in the assay on COLO 205, > 10 µM (inactive); with MOLT-4, 20.5 µM (inactive); in the assay on MDA-MB-231, 35.6 µM (inactive). The GI50 with HL-60 is 28.6 µM (inactive); in the assay with NCI/ADR-RES it was > 100 µM (inactive); in the assay with SK-MEL-5, 25.7 µM (inactive); in the assay with CCRF-CEM it was > 10 µM (inactive); in the assay with SK-MEL-2 it was 51.2 µM (inactive); in the assay on CAKI-1 it was > 100 µM (inactive). The GI50 with HCT-15 is greater than 100 µM; in the assay on M14, 49.7 µM (inactive); with SW-620 it was 45.7 µM (inactive); in the assay on Malme-3M, 60.8 µM (inactive); with SF-268, 21.6 µM (inactive); in the assay with MDA-N, 43.3 µM (inactive). The GI50 in the assay on KM12 was 25.6 µM (inactive); in the assay with SF-295, 19 µM (inactive).

In the case of `CC(C)(CN)CN`, the GI50 with HT-29, with IGROV-1, with RXF 393, in the assay on COLO 205, in the assay on MOLT-4 and in the assay with MDA-MB-231 was > 100 µM (inactive) throughout. Besides, the GI50 in the assay with HL-60, with NCI/ADR-RES, with SK-MEL-5, in the assay on CCRF-CEM, in the assay on SK-MEL-2 and in the assay on CAKI-1 was > 100 µM (inactive) in each case. Further, the GI50 is greater than 100 µM in the assay on HCT-15; > 100 µM (inactive) in the assay with M14; > 100 µM (inactive) with SW-620; > 100 µM (inactive) in the assay with Malme-3M; > 100 µM (inactive) in the assay on SF-268; > 100 µM (inactive) in the assay on MDA-N. Further, the GI50 with KM12 and in the assay with SF-295 was > 100 µM (inactive) in each case.

For the compound `COC(=O)[C@@H](NC(=O)[C@@H](CC(C)C)N(C)C(=O)[C@@H]1CCCN1C(=O)C(C)O)C(C)OC(=O)CCc1ccc(OC)cc1` (stereo not given in full) (H-[ξLac]P[dNMeL][Thr(3ξ)](Propanoyl(3-(4-MeO-Ph)))-OMe), the GI50 in the assay on HT-29 is > 100 µM (inactive); with IGROV-1, > 100 µM (inactive); in the assay on RXF 393, > 100 µM (inactive); in the assay with COLO 205, > 100 µM (inactive); with MOLT-4 it was 60.5 µM (inactive); with MDA-MB-231, > 100 µM (inactive). The GI50 in the assay with HL-60, in the assay with NCI/ADR-RES, in the assay with SK-MEL-5, in the assay with CCRF-CEM, with SK-MEL-2 and in the assay on CAKI-1 was > 100 µM (inactive) throughout. Also, the GI50 in the assay on HCT-15 was greater than 100 µM; in the assay with M14, > 100 µM (inactive); with SW-620, > 100 µM (inactive); in the assay on Malme-3M, > 100 µM (inactive); in the assay on SF-268, > 100 µM (inactive); in the assay with MDA-N, > 100 µM (inactive). Besides, the GI50 in the assay on KM12 and in the assay with SF-295 was > 100 µM (inactive) in each case.

On to `N#Cc1sc2c(c1OC(=O)c1ccccc1)c(=O)n(-c1ccccc1)c(=S)n2-c1ccccc1`, for which the GI50 with HT-29 is 32.7 µM (inactive); in the assay on IGROV-1, 22 µM (inactive); in the assay on RXF 393 it was 14.3 µM (inactive); in the assay on COLO 205, 16.6 µM (inactive); in the assay with MOLT-4, 20.6 µM (inactive); in the assay with MDA-MB-231, 23.9 µM (inactive). Moreover, the GI50 with HL-60 is 24.4 µM (inactive); with NCI/ADR-RES, 21 µM (inactive); with SK-MEL-5, 15.2 µM (inactive); with CCRF-CEM, 19.8 µM (inactive); in the assay with SK-MEL-2, 28.6 µM (inactive); with CAKI-1, 35.9 µM (inactive). Besides, the GI50 in the assay with HCT-15 is 18.2 µM; with M14, 18.3 µM (inactive); in the assay on SW-620, 28.8 µM (inactive); in the assay on Malme-3M, 20.5 µM (inactive); in the assay on SF-268 it was 33.5 µM (inactive); with MDA-N, 26.3 µM (inactive). In addition, the GI50 was 19.5 µM (inactive) with KM12 and 28.2 µM (inactive) with SF-295.

`Cc1cc(/N=C/c2ccc(F)cc2)n(-c2ccccc2)n1`: the GI50 in the assay with HT-29 was 48.9 µM (inactive); in the assay on IGROV-1, 84.3 µM (inactive); in the assay with RXF 393, 47.9 µM (inactive); in the assay with COLO 205, 37.1 µM (inactive); in the assay on MOLT-4 it was 35.3 µM (inactive); in the assay with MDA-MB-231 it was > 100 µM (inactive). Also, the GI50 was 30.3 µM (inactive) with HL-60; > 100 µM (inactive) with NCI/ADR-RES; 52.5 µM (inactive) in the assay with SK-MEL-5; 34.6 µM (inactive) in the assay with CCRF-CEM; > 100 µM (inactive) in the assay with SK-MEL-2; > 100 µM (inactive) with CAKI-1. For the same compound, the GI50 was 48.2 µM in the assay on HCT-15; > 100 µM (inactive) with M14; > 100 µM (inactive) in the assay with SW-620; 75.5 µM (inactive) with Malme-3M; > 100 µM (inactive) in the assay on SF-268; 73.3 µM (inactive) in the assay with MDA-N. Also, the GI50 was 51.8 µM (inactive) with KM12 and 57.5 µM (inactive) in the assay on SF-295.
